Measured values: ChEMBL document CHEMBL1201862, “PubChem BioAssay data set” (2004)
Each block holds one compound with its values, some of them ahead of it. Activity calls are given as the source filed them.

Key:
[1] = target: Galanin receptor type 3 (Homo sapiens, UniProt O60755); assay: Fluorescence-based cell-based primary high throughput dose response assay to identify antagonists of the Galanin Receptor 3 (GalR3).; type: functional
[2] = target: Cytochrome P450 2D6 (Homo sapiens, UniProt P10635);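 also: CYP2D6 member of a cytochrome P450 panel assay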
Chain of Cytochrome P450 2D6 (P10635 whole entry): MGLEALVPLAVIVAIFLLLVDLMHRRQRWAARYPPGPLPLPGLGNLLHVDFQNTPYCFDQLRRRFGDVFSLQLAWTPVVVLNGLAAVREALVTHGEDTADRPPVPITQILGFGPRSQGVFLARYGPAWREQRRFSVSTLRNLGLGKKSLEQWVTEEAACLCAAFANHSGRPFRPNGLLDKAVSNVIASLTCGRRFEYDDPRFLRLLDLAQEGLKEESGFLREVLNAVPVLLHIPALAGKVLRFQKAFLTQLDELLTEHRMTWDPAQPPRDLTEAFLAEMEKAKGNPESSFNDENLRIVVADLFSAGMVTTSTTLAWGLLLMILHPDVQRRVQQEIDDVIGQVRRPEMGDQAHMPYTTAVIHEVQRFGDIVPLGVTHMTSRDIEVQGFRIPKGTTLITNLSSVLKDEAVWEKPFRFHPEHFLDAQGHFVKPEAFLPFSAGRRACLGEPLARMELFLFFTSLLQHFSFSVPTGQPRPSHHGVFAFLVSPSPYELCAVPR

[3] = target: Cytochrome P450 2C9 (Homo sapiens, UniProt P11712)
Chain of Cytochrome P450 2C9 (P11712 whole entry): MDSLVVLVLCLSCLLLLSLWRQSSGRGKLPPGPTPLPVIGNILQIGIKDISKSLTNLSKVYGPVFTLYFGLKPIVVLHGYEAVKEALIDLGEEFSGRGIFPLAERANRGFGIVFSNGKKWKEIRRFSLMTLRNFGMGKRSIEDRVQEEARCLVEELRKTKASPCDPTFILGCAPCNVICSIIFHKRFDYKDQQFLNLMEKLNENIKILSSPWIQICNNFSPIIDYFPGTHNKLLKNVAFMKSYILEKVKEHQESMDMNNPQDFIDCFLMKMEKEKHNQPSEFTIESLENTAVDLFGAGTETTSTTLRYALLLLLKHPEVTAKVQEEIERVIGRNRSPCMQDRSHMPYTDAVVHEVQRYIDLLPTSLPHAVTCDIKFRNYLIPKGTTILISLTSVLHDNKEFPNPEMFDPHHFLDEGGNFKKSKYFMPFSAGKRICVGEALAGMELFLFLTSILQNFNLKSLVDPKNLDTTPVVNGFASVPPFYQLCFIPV

[4] = cells; type: functional, cell-based; conditions: HEK-CNG
[5] = target: Kallikrein-7 (Homo sapiens, UniProt P49862); assay: Fluorescence Intensity-based biochemical primary high throughput dose response assay to identify activators of kallikrein-7 (K7) zymogen.
Chain of Kallikrein-7 (P49862 whole entry): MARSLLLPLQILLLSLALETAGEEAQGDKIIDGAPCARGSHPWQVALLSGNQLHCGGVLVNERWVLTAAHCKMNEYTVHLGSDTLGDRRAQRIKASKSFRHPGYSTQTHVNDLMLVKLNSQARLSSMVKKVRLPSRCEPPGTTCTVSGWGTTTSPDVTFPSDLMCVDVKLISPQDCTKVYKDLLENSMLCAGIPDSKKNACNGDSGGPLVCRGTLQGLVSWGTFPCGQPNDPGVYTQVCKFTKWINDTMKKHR

[6] = target: T1, Sentrin-specific protease 8 (Homo sapiens, UniProt Q96LD8); type: functional
T1 sequence (Q96LD8 whole entry): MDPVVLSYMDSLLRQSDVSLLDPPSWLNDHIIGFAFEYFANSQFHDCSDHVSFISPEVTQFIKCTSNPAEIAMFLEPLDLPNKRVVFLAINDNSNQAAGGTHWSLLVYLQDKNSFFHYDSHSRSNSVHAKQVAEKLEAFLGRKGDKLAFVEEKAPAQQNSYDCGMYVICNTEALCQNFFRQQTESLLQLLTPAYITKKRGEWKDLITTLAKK

[7] = target: T1, Sentrin-specific protease 8; type: functional; remark: listed apart in the source
[8] = target: fMet-Leu-Phe receptor (Homo sapiens, UniProt P21462); assay: formyl peptide receptor binders – dose response (AID 519); type: functional
Chain of fMet-Leu-Phe receptor (P21462 whole entry): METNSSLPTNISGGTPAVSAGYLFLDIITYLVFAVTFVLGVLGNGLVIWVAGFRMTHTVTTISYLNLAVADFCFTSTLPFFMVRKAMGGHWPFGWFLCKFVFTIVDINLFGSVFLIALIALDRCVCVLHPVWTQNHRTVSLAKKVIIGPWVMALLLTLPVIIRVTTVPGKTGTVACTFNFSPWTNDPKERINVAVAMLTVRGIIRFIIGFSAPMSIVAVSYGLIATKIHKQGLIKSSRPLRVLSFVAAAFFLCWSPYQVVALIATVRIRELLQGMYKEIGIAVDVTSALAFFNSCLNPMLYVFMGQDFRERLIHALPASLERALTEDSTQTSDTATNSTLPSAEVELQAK

[9] = nonselective StAR promoter luciferase inhibitors – cell-based, luminescence, luciferase reporter, counter-screen for LRH-1 inverse agonist project, dose response (AID 651969); type: functional
[10] = target: Nuclear receptor subfamily 5 group A member 2 (Homo sapiens, UniProt O00482); type: functional, cell-based;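 also: HEK293T cells transfected with LRH-1 and a StAR promoter luciferase reporter; potency for inhibitors that lower LRH-1 driven reporter light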
Chain of Nuclear receptor subfamily 5 group A member 2 (O00482 whole entry): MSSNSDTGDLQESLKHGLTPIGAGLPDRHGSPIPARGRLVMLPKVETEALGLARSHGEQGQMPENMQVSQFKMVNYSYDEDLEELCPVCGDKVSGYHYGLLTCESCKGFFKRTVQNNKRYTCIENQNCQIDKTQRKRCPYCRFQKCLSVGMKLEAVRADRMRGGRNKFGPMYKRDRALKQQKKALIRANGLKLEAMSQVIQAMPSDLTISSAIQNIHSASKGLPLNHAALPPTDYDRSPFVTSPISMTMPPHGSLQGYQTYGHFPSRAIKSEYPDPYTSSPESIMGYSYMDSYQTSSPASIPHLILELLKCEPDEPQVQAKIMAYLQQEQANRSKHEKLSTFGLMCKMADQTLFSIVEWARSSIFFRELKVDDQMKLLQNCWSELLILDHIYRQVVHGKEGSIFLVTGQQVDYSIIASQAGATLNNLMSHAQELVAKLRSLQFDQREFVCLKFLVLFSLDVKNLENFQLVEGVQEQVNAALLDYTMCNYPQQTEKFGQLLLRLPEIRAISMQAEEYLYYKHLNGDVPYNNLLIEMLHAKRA

[11] = target: Steroidogenic factor 1 (Homo sapiens, UniProt Q13285); assay: Counterscreen for inverse agonists of the liver receptor homolog-1 (LRH-1; NR5A2): Luminescence-based cell-based high throughput dose response assay to identify inverse agonists of the Steroidogenic Factor 1 Nuclear Receptor (SF1; NR5A1).; type: functional
Chain of Steroidogenic factor 1 (Q13285 whole entry): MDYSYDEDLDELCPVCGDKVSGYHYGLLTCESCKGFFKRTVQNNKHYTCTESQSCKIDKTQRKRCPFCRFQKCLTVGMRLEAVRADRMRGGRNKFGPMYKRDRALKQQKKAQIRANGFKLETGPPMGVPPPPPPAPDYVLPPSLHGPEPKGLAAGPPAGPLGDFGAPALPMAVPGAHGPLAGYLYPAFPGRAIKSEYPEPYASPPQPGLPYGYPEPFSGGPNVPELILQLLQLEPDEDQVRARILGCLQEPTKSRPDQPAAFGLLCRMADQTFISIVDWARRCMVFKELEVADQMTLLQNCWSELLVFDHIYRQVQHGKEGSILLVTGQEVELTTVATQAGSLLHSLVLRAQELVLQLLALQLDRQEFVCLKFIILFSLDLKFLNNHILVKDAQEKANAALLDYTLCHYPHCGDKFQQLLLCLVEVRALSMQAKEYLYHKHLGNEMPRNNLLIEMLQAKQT

[12] = viability loss in HEK293T cells – cell-based, cherry-picks, cytotoxicity control for HIV Vif inhibitor project, dose response (AID 652208); type: functional
[13] = test system: INS1; assay: INS-1E survival protection against cytokine death – cell-based, luminescence, retest, dose response (AID 449756); type: functional; conditions: Rattus norvegicus;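 also: cell death triggered by IL-1 beta plus TNF-alpha plus IFN-gamma mixture; protective hits raise ATP signal compared with cytokine alone wells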
[14] = HEK-293T viability loss after treatment – luminescence, T-cell screen hits, cytotoxicity control for TCR NF-kB inhibitor project, dose response (AID 489026); type: functional, cell-based;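 also: cells exposed to compound about 14 hours before the viability readout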
[15] = target: COUP transcription factor 2 (Homo sapiens, UniProt P24468); assay: Luminescence-based cell-based high throughput dose response assay to identify inhibitors of COUP-TFII (NR2F2).; type: functional;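 also: HEK293 cells transiently cotransfected with COUP-TFII expression vector and reporter; luciferase reporter luminescence driven by COUP-TFII from the pX2-168 reporter plasmid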
Chain of COUP transcription factor 2 (P24468 whole entry): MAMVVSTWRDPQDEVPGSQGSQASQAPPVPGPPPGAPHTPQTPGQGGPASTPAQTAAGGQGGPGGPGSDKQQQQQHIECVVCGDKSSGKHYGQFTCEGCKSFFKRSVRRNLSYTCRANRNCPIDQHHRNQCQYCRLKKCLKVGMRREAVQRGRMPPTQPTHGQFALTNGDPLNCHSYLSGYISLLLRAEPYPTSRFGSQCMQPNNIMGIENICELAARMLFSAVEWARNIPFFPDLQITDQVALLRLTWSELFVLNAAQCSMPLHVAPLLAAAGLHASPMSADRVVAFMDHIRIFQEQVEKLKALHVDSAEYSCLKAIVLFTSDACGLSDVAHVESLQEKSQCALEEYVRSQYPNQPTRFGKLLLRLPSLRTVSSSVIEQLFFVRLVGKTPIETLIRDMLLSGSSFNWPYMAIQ

Chain of Galanin receptor type 3 (O60755 whole entry): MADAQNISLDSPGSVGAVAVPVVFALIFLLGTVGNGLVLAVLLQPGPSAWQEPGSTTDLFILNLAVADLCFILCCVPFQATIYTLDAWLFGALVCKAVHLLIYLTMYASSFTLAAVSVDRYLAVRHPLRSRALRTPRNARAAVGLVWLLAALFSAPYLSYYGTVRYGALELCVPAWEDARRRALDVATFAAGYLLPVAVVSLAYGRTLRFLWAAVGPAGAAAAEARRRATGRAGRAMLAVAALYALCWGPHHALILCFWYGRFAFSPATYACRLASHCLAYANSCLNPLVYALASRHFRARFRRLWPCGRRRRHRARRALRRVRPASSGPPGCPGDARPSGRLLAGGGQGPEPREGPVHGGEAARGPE

Compound: Cc1nc2sc(C#N)c(N)c2c2c1CCCC2
IC50 [1]: > 29.9 µM (inactive)
AC50 [2]: 398 nM (inconclusive)
AC50 [3]: inconclusive
EC50 [4]: > 29.9 µM (inactive)

EC50 [5]: > 69.5 µM (inactive)
Compound: O=C(NCCCN1CCCC1=O)c1cc2nc(-c3ccco3)cc(C(F)(F)F)n2n1

Compound: O=C(COC(=O)c1cc(S(=O)(=O)N2CCc3ccccc3C2)ccc1Cl)NCc1ccco1
IC50 [6]: > 100 µM (inactive)
IC50 [7]: 12.4 µM (active)

Ki [8]: > 66.7 µM (inactive)
Compound: COc1ccc(-c2nc(N3CCCC3)[nH]c(=O)c2C#N)cc1

Compound: CN(C)S(=O)(=O)c1cccc(C(=O)OCC(=O)Nc2ccc3c(c2)OCCO3)c1
IC50 [9]: 35.9 µM (inactive)
IC50 [10]: 90.5 µM (inactive)
IC50 [11]: 3.18 µM (active)

Ki [8]: > 66.7 µM (inactive)
Compound: Cc1cc(NC(=O)CSc2nnc(Cn3c(=O)sc4ccccc43)n2-c2ccccc2C)no1

Compound: COC(=O)c1ccc2c(=O)n(Cc3ccco3)c(SCC(=O)Nc3cc(C)on3)nc2c1
AC50 [12]: 35.7 µM (active)

Compound: O=C(CSc1nnc(Cn2nnc3ccccc32)o1)N(Cc1ccc(F)cc1)c1ccccc1
AC50 [13]: 4.43 µM (active)
IC50 [1]: 1.24 µM (active)
IC50 [14]: > 80 µM (inactive)
IC50 [15]: 4.87 µM (active)
EC50 [4]: > 29.9 µM (inactive)
